Active and inactive are the calls of the source. The calls are words filed in the database; no cut-off is given here.
Target: Transcription factor p65 (Mus musculus) (UniProt Q04207)
Experiment: Inhibition of TNFalpha/IL-1beta-induced NFkB p65 translocation from cytosol to nucleus in mouse MIN6 cells at 50 uM after 30 mins by immunofluorescence based high content imaging analysis
Format: cell-based

Chain of Transcription factor p65 (Mus musculus) (Q04207 whole entry): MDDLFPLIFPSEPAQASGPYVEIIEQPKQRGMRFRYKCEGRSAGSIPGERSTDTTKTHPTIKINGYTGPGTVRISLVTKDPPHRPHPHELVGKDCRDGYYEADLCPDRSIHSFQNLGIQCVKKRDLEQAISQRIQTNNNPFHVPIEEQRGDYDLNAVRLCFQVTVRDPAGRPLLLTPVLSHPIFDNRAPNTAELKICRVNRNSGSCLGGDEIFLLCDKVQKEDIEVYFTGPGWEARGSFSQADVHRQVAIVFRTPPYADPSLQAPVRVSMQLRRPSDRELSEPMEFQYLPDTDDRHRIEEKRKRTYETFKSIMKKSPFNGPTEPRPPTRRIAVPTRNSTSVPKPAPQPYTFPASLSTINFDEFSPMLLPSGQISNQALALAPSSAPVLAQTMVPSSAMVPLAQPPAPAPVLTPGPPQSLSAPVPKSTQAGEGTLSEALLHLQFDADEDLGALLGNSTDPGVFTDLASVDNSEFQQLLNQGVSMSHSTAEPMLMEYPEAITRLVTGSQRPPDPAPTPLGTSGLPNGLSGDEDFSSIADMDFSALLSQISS

inhibition: Active
SMILES: COc1cc(O)cc(O)c1C(=O)/C=C/c1ccc(O)cc1

Reference: ChEMBL document CHEMBL4330156, “Amides and Flavonoids from the Fruit and Leaf Extracts of Melodorum siamensis” (J Nat Prod, 2019)
